Columns and labels:
Format in all cases: in vivo
[1] = test system: Soy transgenic plants expressing CYP14; assay: Field trial icafolin injury rating, CYP14 soybean; settings: for Percent Plant Injury (21 DAT): averaged across repetitions, field locations and events
Description: Soy transgenic plants expressing CYP14 or CYP15 were assayed in small scale field trails across nine sites in the United States for tolerance to icafolin spray applications. The plants were grown in field plots and sprayed during the early vegetative stages when plants were roughly at the V3 stage. The icafolin formulation was sprayed at either a 5 g ai/ha or 25 g ai/ha application rate with 2 treatment replications per location. The plants were rated for herbicide injury at 7, 14, 21, and 28 days after treatment (DAT). A total of 12 events for CYP14 and 11 events for CYP15 were tested. An event transformed with a non-herbicide tolerance construct served as a negative control to provide a comparison for injury.

[2] = test system: transgenic soybean plants expressing CYP34; assay: Icafolin herbicide injury rating, greenhouse spray, CYP34 soybean; settings: Table 10
Source text: The codon-optimized gene was placed into plant transformation cassette with the CYP34 coding sequence operably linked to a constitutive expression element comprising the promoter, leader, and intron of Arabidopsis thaliana Ubiquitin 3 (SEQ ID NO:14) and a Medicago truncatula photosystem II terminator (SEQ ID NO:15). A plant transformation vector was created, comprising the CYP34 gene cassette and an aadA selectable marker expression cassette, which confers resistance to the antibiotics spectinomycin and streptomycin. Soybean cultivar AG3555 seed-derived embryo explants were transformed with the vector described above by Agrobacterium-mediated transformation using known methods in the art, and positive-transformed plantlets were selected based on growth in the presence of spectinomycin. Plantlets comprising single copy events were grown in the greenhouse to produce R1 seeds. R1 plants were subsequently selected for the homozygous CYP positive plants, either by molecular analysis of young leaf tissue or by seed chipping prior to planting. These selected plants were then screened for tolerance to the icafolin herbicide.
Herbicide tolerance screening was performed by selecting R1 plants at roughly the V2-V3 developmental stage and applying the icafolin herbicide in a track sprayer under standard greenhouse conditions. Two independent transgenic events per transgene were selected for screening. The herbicide was formulated with 1% v/v methylated seed oil (MSO) and 2.5% v/v ammonium sulfate (AMS) and sprayed with a XR nozzle at 15 gallons per […] (GPA) to mimic field conditions. The icafolin formulation was sprayed at two rates: 5 g active ingredient (ai)/hectare (ha) and 25 g ai/ha. The treated soybean plants were returned to the greenhouse following spray application and allowed to grow under standard conditions. The plants were rated for herbicide injury at approximately 13 and 21 days after treatment (DAT). Untreated transgenic plants and control (wild-type) plants were used for phenotypic comparison. The herbicide injury rating accounts for plant malformation, stunting, chlorosis, necrosis, and plant death relative to the untreated control plants. An injury rating of approximately 90% or above indicates nearly complete plant death. An injury rating of less than 30% indicates partial tolerance and an injury rating of less than 20% indicates good tolerance. Injury ratings were collected and analyzed, and photographs of representative plants were taken.

[3] = test system: transgenic soybean plants expressing CYP15; assay: Icafolin herbicide injury rating, greenhouse spray, CYP15 soybean
Source text: (§1) The codon-optimized polynucleotide sequences were placed into plant transformation cassettes with each CYP coding sequence operably-linked to a constitutive expression element comprising the promoter, leader, and intron sequence of Arabidopsis thaliana Ubiquitin 3 (SEQ ID NO:14) and a Medicago truncatula photosystem II terminator (SEQ ID NO:15). Four plant transformation vectors were created, each comprising one of the CYP gene expression cassettes and an aadA selectable marker expression cassette, conferring resistance to the antibiotics spectinomycin and streptomycin. Soybean cultivar AG3555 seed-derived embryo explants were transformed with the vectors by Agrobacterium-mediated transformation using known methods in the art, and transformed plantlets were selected based on growth in the presence of spectinomycin. Plantlets comprising single copy events were grown in the greenhouse to produce R1 seeds. R1 plants were subsequently selected for homozygous CYP-positive plants, either by molecular analysis of young leaf tissue or by seed chipping prior to planting. These selected plants were then screened for tolerance to icafolin herbicide.
(§2) Herbicide tolerance screens were performed by selecting R1 plants at roughly the V2-V3 developmental stage and applying icafolin herbicide with a track sprayer under standard greenhouse conditions. Two independent transgenic events per transgene were screened. The herbicide was formulated with 1% v/v methylated seed oil (MSO) and 2.5% v/v ammonium sulfate (AMS) and sprayed with a XR nozzle at 15 gallons per […] (GPA) to mimic field conditions. The icafolin used in this Example and in the experiments described in Examples 2-4 was a mixture of the methyl ester forms of the 2R, 4R and 2S, 4S isomers. The icafolin formulation was sprayed at two rates: 5 g active ingredient (ai)/hectare (ha) and 25 g ai/ha. The herbicide treated soybean plants were returned to the greenhouse following spray application and allowed to grow under standard conditions. Plants were rated for herbicide injury at approximately 14 and 21 days after treatment (DAT). Untreated transgenic plants and control (wild-type) plants were used for phenotypic comparison. The herbicide injury rating accounts for plant malformation, stunting, chlorosis, necrosis, and plant death relative to the untreated control plants. An injury rating of approximately 90% or above indicates nearly complete plant death. An injury rating of less than 30% indicates partial tolerance, and an injury rating of less than 20% indicates good tolerance. Injury ratings were collected and analyzed, and photographs of representative plants were taken.

[4] = test system: transgenic soybean plants expressing CYP13; assay: Icafolin herbicide injury rating, greenhouse spray, CYP13 soybean; settings: for Percent Injury 15 DAT / Percent injury 21 DAT: Experiment 1
Source text: as §1, §2

[5] = CYP34 Event 326, 5 g ai/ha icafolin
[6] = CYP34 Event 326, 25 g ai/ha icafolin
[7] = CYP34 Event 356, 5 g ai/ha icafolin
[8] = CYP34 Event 356, 25 g ai/ha icafolin
[9] = CYP15 Event 618, 5 g ai/ha icafolin, Experiment 2
[10] = CYP15 Event 618, 25 g ai/ha icafolin, Experiment 2
[11] = CYP15 Event 670, 5 g ai/ha icafolin, Experiment 2
[12] = CYP15 Event 670, 25 g ai/ha icafolin, Experiment 2
[13] = CYP15 Event 784, 5 g ai/ha icafolin, Experiment 2
[14] = CYP15 Event 784, 5 g ai/ha icafolin, Experiment 1
[15] = CYP15 Event 784, 25 g ai/ha icafolin, Experiment 2
[16] = CYP15 Event 784, 25 g ai/ha icafolin, Experiment 1
[17] = CYP15 Event 794, 5 g ai/ha icafolin, Experiment 2
[18] = CYP15 Event 794, 5 g ai/ha icafolin, Experiment 1
[19] = CYP15 Event 794, 25 g ai/ha icafolin, Experiment 2
[20] = CYP15 Event 794, 25 g ai/ha icafolin, Experiment 1
[21] = CYP13 Event 943, 5 g ai/ha icafolin
[22] = CYP13 Event 943, 25 g ai/ha icafolin
[23] = CYP13 Event 982, 5 g ai/ha icafolin
[24] = CYP13 Event 982, 25 g ai/ha icafolin

Structure (SMILES): C=C[C@]1(C(=O)N[C@H]2CO[C@@H](C(=O)OC)C2)CC(c2cc(F)cc(F)c2)=NO1 (relative stereo) [icafolin, methyl(2R*,4R*)-4-[[(5S)-3-(3,5-difluorophenyl)-5-vinyl-4H-isoxazole-5-carbonyl]amino]tetrahydrofuran-2-carboxylate]
- Percent Plant Injury (21 DAT) ([1]; 5 g ai/ha icafolin): 11.4%
- injury ratings ([1]; 5 g ai/ha, 21 DAT): below 15%
- Tolerance to icafolin ([1]; 25 g ai/ha): Incomplete tolerance
- Percent Plant Injury (21 DAT) ([1]; 25 g ai/ha icafolin): 41.1%
- Percent Injury 13 DAT [2, 5]: 12.5%
- Percent injury 21 DAT [2, 5]: 9.2%
- Percent Injury 13 DAT [2, 6]: 48.3%
- Percent injury 21 DAT [2, 6]: 36.7%
- Percent Injury 13 DAT [2, 7]: 13.3%
- Percent injury 21 DAT [2, 7]: 12.5%
- Percent Injury 13 DAT [2, 8]: 35.8%
- Percent injury 21 DAT [2, 8]: 30.8%
- Percent Injury 14 DAT [3, 9]: 23%
- Percent injury 21 DAT [3, 9]: 12%
- Percent Injury 14 DAT [3, 10]: 60%
- Percent injury 21 DAT [3, 10]: 32%
- Percent Injury 14 DAT [3, 11]: 10%
- Percent injury 21 DAT [3, 11]: 15%
- Percent Injury 14 DAT [3, 12]: 52%
- Percent injury 21 DAT [3, 12]: 34%
- Percent Injury 14 DAT [3, 13]: 8%
- Percent Injury 15 DAT [3, 14]: 8%
- Percent injury 21 DAT [3, 14]: 3%
- Percent injury 21 DAT [3, 13]: 11%
- Percent Injury 14 DAT [3, 15]: 78%
- Percent Injury 15 DAT [3, 16]: 28%
- Percent injury 21 DAT [3, 16]: 32%
- Percent injury 21 DAT [3, 15]: 44%
- Percent Injury 14 DAT [3, 17]: 12%
- Percent Injury 15 DAT [3, 18]: 8%
- Percent injury 21 DAT [3, 18]: 6%
- Percent injury 21 DAT [3, 17]: 9%
- Percent Injury 14 DAT [3, 19]: 78%
- Percent Injury 15 DAT [3, 20]: 36%
- Percent injury 21 DAT [3, 20]: 41%
- Percent injury 21 DAT [3, 19]: 49%
- Tolerance to icafolin ([3]; in vivo): unexpected tolerance
- injury ([3]; in vivo): less than 30%
- Percent Injury 15 DAT [4, 21]: 42%
- Percent injury 21 DAT [4, 21]: 59%
- Percent Injury 15 DAT [4, 22]: 74%
- Percent injury 21 DAT [4, 22]: 80%
- Percent Injury 15 DAT [4, 23]: 41%
- Percent injury 21 DAT [4, 23]: 52%
- Percent Injury 15 DAT [4, 24]: 69%
- Percent injury 21 DAT [4, 24]: 80%
- Tolerance to icafolin ([4]; in vivo): did not show any noticeable tolerance

Source: US20240415123A1, “METHODS AND COMPOSITIONS FOR ICAFOLIN HERBICIDE TOLERANCE” (Monsanto Technology LLC, priority 2023, published 2024)
